Test results reported in PubChem BioAssay (NCI).
Values joined by “and” are separate entries in the source; they are usually repeats but may differ in a detail not shown here. Equal values may be shown once.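 All cell lines were grown in 96-well plates and treated with compound for 48 hours. GI50 is the concentration that inhibits growth by half. TGI marks complete inhibition of growth.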

These compounds were tested on KM12 colon (assay: NCI-60 cell line screen, 48 h).

Row | Compound | TGI | GI50
1 | COc1ccc2cc1Oc1ccc(cc1)C[C@H]1c3cc(c(OC)cc3CCN1C)Oc1c(O)c(OC)cc3c1[C@H](C2)N(C)CC3 | 42.6 µM | –
2 | Oc1ccc(Cc2cc(Cc3ccc(O)cc3)cc(Cc3ccc(O)cc3)c2)cc1 | > 50 µM | –
3 | CC1CN(C)c2ccccc2N=C1NN (stereo unspecified) | > 100 µM | –
4 | CC(=O)Oc1cccc2c1C(=O)CCCC2 | > 100 µM | –
5 | CCN(CC)C(=S)N/N=C/c1cc([N+](=O)[O-])ccc1O | > 100 µM | –
6 | COc1ccc(CN2C(=O)/C(=C\c3cc(OC)c(OC)c(OC)c3)c3ccccc32)cc1 | 3.57 µM | 1.89 µM
7 | Cc1ccc(NC(=O)CC2Sc3ccccc3NC2=O)cc1C (stereo unspecified) | > 100 µM | –
8 | N[C@@H](CCC(=O)NCP(=O)(O)O)C(=O)O | > 100 µM | –
9 | CCC(=O)NC(Nc1cc(C)on1)(C(F)(F)F)C(F)(F)F | > 100 µM | –
10 | CCOP(=O)(OCC)C(F)(F)c1ccc(CC(NC(=O)OC(C)(C)C)C(=O)O)cc1 (stereo unspecified) | > 10 µM | –
11 | CCC(=O)NCC1CCCN2CCCCC12 (stereo unspecified) | > 100 µM | –
12 | NC(=O)C(=Cn1c(=S)[nH]c2ccc([N+](=O)[O-])cc21)C(N)=O | > 100 µM | –
13 | O=C(C1OC1c1ccc(Br)cc1O)C12CC3CC(CC(C3)C1)C2 (stereo unspecified) | 41.4 µM | –
14 | Cc1ccc(N(Cc2ccccc2)Cc2ccccc2)cc1 | > 100 µM | –
15 | O=C1C=C[C@@H](COC2OC(CO)C(O)C(O)C2O)O1 (stereo partly specified) | 11.6 µM and 17.4 µM | 3.16 µM
16 | c1ccc2c3[nH]c(c2c1)=Nc1ccc(cc1)-c1nc2cc(ccc2o1)N=c1[nH]c(c2ccccc12)=Nc1ccc2nc(oc2c1)-c1ccc(cc1)N=3 | > 100 µM | –
17 | Nc1nc(-c2ccccc2)nc2oc(-c3cccs3)nc12 | > 100 µM | –
18 | Cc1ccc(-c2cc(-c3ccco3)c(C#N)c(=S)n2C2OC(CO)C(O)C(O)C2O)cc1 (stereo unspecified) | 76.9 µM and > 100 µM | –
19 | O=C(Cc1ccc(O)c(O)c1)NCc1c[nH]c2ccccc12 | > 100 µM | –
20 | COc1nncc2[nH]c(-c3ccccc3)cc12 | > 100 µM | –
21 | COc1ccc(-n2c(C)nc3ccc(NC(=S)Nc4ccccc4)cc3c2=O)cc1 | > 100 µM | –
22 | O=C(NCc1ccccc1)c1n[nH][nH]c1=O | > 100 µM | –
23 | O=S(=O)(c1ccccc1)c1cccc2c1NCCC2 | > 100 µM | –

What follows are compounds tested on MDA-MB-435 (assay: NCI-60 cell line screen, 48 h).

Row | Compound | TGI | GI50
24 | COc1cccc(Nc2nc(-c3cccs3)nc3cc(OC)c(OC)cc23)c1 | 96.4 µM | –
25 | O=C1c2cc3c(cc2-c2c1c1ccc(F)cc1c(=O)n2C[C@H](O)[C@@H](O)[C@H](O)CO)OCO3 | 0.279 µM | 0.112 µM
26 | Cc1cc(Nc2ccc(S(=O)(=O)O)c3cc(S(=O)(=O)O)cc(S(=O)(=O)O)c23)c2ccccc2n1 | > 100 µM | –
27 | Cc1cc(C)nc(NS(=O)(=O)c2ccc(NC(=O)c3ccc4nc5ccccc5c(Nc5ccc(S(N)(=O)=O)cc5)c4c3)cc2)n1 | > 100 µM | –
28 | CC1(C(=O)O)CCC2(C)CCC3(C)C(=CC(=O)C4C5(C)CCC(O)C(C)(C)C5CCC43C)C2C1 (stereo unspecified) | > 100 µM | –
29 | CC1(C)O[C@H]2OC(CO[Si](C)(C)C(C)(C)C)C(N=[N+]=[N-])[C@H]2O1 (stereo partly specified) | 66.4 µM | –
30 | O=[N+]([O-])c1ccc(Cl)cc1N/N=C/c1ccnc2ccccc12 | > 100 µM | –
31 | Oc1ccc(Cc2cc(Cc3ccc(O)cc3)cc(Cc3ccc(O)cc3)c2)cc1 | > 50 µM | –
32 | Nc1ncnc2c1[nH]c(=O)n2-c1ccccc1 | > 100 µM | –
33 | CC1CN(C)c2ccccc2N=C1NN (stereo unspecified) | > 100 µM | –
34 | CC(=O)Oc1cccc2c1C(=O)CCCC2 | > 100 µM | –
35 | CCN(CC)C(=S)N/N=C/c1cc([N+](=O)[O-])ccc1O | 76.9 µM | –
36 | COc1ccc(CN2C(=O)/C(=C\c3cc(OC)c(OC)c(OC)c3)c3ccccc32)cc1 | 5.08 µM | 2.09 µM
37 | N[C@@H](CCC(=O)NCP(=O)(O)O)C(=O)O | > 100 µM | –
38 | CCC(=O)NC(Nc1cc(C)on1)(C(F)(F)F)C(F)(F)F | > 100 µM | –
39 | CCOP(=O)(OCC)C(F)(F)c1ccc(CC(NC(=O)OC(C)(C)C)C(=O)O)cc1 (stereo unspecified) | > 10 µM | –
40 | CCC(=O)NCC1CCCN2CCCCC12 (stereo unspecified) | > 100 µM | –
41 | NC(=O)C(=Cn1c(=S)[nH]c2ccc([N+](=O)[O-])cc21)C(N)=O | > 100 µM | –
42 | O=C(C1OC1c1ccc(Br)cc1O)C12CC3CC(CC(C3)C1)C2 (stereo unspecified) | 30.4 µM | –
43 | Cc1ccc(N(Cc2ccccc2)Cc2ccccc2)cc1 | > 100 µM | –
44 | c1ccc2c3[nH]c(c2c1)=Nc1ccc(cc1)-c1nc2cc(ccc2o1)N=c1[nH]c(c2ccccc12)=Nc1ccc2nc(oc2c1)-c1ccc(cc1)N=3 | > 100 µM | –
45 | Nc1nc(-c2ccccc2)nc2oc(-c3cccs3)nc12 | > 100 µM | –
46 | Cc1ccc(-c2cc(-c3ccco3)c(C#N)c(=S)n2C2OC(CO)C(O)C(O)C2O)cc1 (stereo unspecified) | > 100 µM | –
47 | COc1nncc2[nH]c(-c3ccccc3)cc12 | > 100 µM | –
48 | COc1ccc(-n2c(C)nc3ccc(NC(=S)Nc4ccccc4)cc3c2=O)cc1 | > 100 µM | –
49 | O=C(NCc1ccccc1)c1n[nH][nH]c1=O | > 100 µM | –
50 | O=S(=O)(c1ccccc1)c1cccc2c1NCCC2 | > 100 µM | –

Each compound was assayed on DU-145 prostate (assay: NCI-60 cell line screen, 48 h).

Row | Compound | TGI | GI50
51 | COc1cccc(Nc2nc(-c3cccs3)nc3cc(OC)c(OC)cc23)c1 | > 100 µM | –
52 | O=C1c2cc3c(cc2-c2c1c1ccc(F)cc1c(=O)n2C[C@H](O)[C@@H](O)[C@H](O)CO)OCO3 | 1.99 µM | 0.0513 µM
53 | Cc1cc(Nc2ccc(S(=O)(=O)O)c3cc(S(=O)(=O)O)cc(S(=O)(=O)O)c23)c2ccccc2n1 | > 100 µM | –
54 | Cc1cc(C)nc(NS(=O)(=O)c2ccc(NC(=O)c3ccc4nc5ccccc5c(Nc5ccc(S(N)(=O)=O)cc5)c4c3)cc2)n1 | > 100 µM | –
55 | CC1(C(=O)O)CCC2(C)CCC3(C)C(=CC(=O)C4C5(C)CCC(O)C(C)(C)C5CCC43C)C2C1 (stereo unspecified) | 77.3 µM | –
56 | Cn1c2ccc3cc2c(=S)c2cc(ccc21)OCCOCCOCCOCCOCCOCCO3 | > 10 µM | –
57 | O=[N+]([O-])c1ccc(Cl)cc1N/N=C/c1ccnc2ccccc12 | > 100 µM | –
58 | Oc1ccc(Cc2cc(Cc3ccc(O)cc3)cc(Cc3ccc(O)cc3)c2)cc1 | > 50 µM | –
59 | CC1CN(C)c2ccccc2N=C1NN (stereo unspecified) | > 100 µM | –
60 | CC(=O)Oc1cccc2c1C(=O)CCCC2 | > 100 µM | –
61 | CCN(CC)C(=S)N/N=C/c1cc([N+](=O)[O-])ccc1O | > 100 µM | –
62 | COc1ccc(CN2C(=O)/C(=C\c3cc(OC)c(OC)c(OC)c3)c3ccccc32)cc1 | 6.98 µM | 2.32 µM
63 | CCC(=O)NC(Nc1cc(C)on1)(C(F)(F)F)C(F)(F)F | > 100 µM | –
64 | CCOP(=O)(OCC)C(F)(F)c1ccc(CC(NC(=O)OC(C)(C)C)C(=O)O)cc1 (stereo unspecified) | > 10 µM | –
65 | CCC(=O)NCC1CCCN2CCCCC12 (stereo unspecified) | > 100 µM | –
66 | NC(=O)C(=Cn1c(=S)[nH]c2ccc([N+](=O)[O-])cc21)C(N)=O | > 100 µM | –
67 | O=C(C1OC1c1ccc(Br)cc1O)C12CC3CC(CC(C3)C1)C2 (stereo unspecified) | > 100 µM | –
68 | Cc1ccc(N(Cc2ccccc2)Cc2ccccc2)cc1 | > 100 µM | –
69 | c1ccc2c3[nH]c(c2c1)=Nc1ccc(cc1)-c1nc2cc(ccc2o1)N=c1[nH]c(c2ccccc12)=Nc1ccc2nc(oc2c1)-c1ccc(cc1)N=3 | > 100 µM | –
70 | Nc1nc(-c2ccccc2)nc2oc(-c3cccs3)nc12 | > 100 µM | –
